Reference: patent publication US8791267B2, “Biaryl PDE4 inhibitors for treating inflammatory, cardiovascular and CNS disorders” (Decode Genetics EHF, priority 2007, dated 2014)
Where a name gives a salt, the structure may show the parent alone.

Legend:
PDE4B = PDE4B (Homo sapiens, UniProt Q07343); test: In-vitro assay for PDE4 enzymes, real-time enzyme-coupled spectrophotometric assay, PDE4B Activity (Table 10); type: biochemical; settings: human PDE4B (hPDE4B), enzyme-coupled spectrophotometric assay; read-out: PDE4B Activity, hPDE4B
Sequence of PDE4B (Q07343 whole entry): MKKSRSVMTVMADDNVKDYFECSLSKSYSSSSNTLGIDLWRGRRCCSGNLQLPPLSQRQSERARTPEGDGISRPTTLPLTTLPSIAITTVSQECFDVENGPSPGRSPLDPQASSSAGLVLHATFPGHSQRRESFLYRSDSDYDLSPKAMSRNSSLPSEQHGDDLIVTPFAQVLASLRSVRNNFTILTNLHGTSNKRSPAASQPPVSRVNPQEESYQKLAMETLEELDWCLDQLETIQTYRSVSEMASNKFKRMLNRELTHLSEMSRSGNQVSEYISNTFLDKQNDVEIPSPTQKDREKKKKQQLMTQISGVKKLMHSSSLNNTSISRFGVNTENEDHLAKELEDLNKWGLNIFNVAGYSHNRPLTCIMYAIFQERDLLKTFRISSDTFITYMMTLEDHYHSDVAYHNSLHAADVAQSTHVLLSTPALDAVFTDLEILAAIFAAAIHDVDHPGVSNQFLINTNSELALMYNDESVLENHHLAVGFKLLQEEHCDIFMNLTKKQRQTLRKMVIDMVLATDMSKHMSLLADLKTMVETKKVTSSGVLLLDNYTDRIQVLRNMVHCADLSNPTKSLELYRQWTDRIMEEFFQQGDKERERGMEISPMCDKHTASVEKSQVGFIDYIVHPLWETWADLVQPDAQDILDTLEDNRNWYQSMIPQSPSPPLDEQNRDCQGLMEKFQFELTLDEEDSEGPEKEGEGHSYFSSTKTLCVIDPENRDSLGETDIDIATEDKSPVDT

PDE4 = PDE4 (Homo sapiens, UniProt Q08499); test: In-vitro assay for PDE4 enzymes, real-time enzyme-coupled spectrophotometric assay (Table 9); type: biochemical; settings: human PDE4D; activity class, Table 9; read-out: hPDE4D
Sequence of PDE4 (Q08499 whole entry): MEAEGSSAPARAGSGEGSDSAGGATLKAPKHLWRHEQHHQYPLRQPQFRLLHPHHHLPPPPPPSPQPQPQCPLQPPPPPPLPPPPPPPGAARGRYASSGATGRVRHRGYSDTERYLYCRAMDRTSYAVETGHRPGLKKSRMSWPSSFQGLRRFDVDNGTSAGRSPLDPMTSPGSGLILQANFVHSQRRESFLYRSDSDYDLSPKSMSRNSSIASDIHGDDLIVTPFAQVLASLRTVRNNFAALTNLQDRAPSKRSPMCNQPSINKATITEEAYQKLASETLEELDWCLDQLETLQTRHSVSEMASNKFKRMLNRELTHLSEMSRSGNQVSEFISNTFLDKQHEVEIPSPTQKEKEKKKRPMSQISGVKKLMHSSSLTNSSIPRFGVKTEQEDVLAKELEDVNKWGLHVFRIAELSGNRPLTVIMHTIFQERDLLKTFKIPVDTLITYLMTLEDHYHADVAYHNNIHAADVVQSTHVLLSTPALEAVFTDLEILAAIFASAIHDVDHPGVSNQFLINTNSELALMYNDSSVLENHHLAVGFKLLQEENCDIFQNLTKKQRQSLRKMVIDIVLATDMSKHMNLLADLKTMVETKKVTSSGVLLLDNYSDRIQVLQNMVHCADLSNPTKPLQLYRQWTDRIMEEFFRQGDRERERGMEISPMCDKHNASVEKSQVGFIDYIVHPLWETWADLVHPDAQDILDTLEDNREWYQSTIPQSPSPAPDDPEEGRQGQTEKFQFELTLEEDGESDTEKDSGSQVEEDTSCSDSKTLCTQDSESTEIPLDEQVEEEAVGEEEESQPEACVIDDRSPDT

| IC50 (PDE4B) [µM] | IC50 (PDE4) [µM] | SMILES |
| --- | --- | --- |
| < 5 | < 5 | COc1ccc(Nc2ccc(NS(C)(=O)=O)cc2)cc1-c1cccc(C(C)=O)c1 [P-267, N-[4-(3′-Acetyl-6-methoxy-biphenyl-3-ylamino)-phenyl]-methanesulfonamide] |
| 5 to 20 | 5 to 20 | O=C1CCCN1Cc1ccc(O)c(-c2cccc([N+](=O)[O-])c2)c1 [P-503, 1-(6-Hydroxy-3′-nitro-biphenyl-3-ylmethyl)-pyrrolidin-2-one] |
| < 5 | < 5 | Nc1ccc(Cc2ccc(OC(F)F)c(-c3cccc(Br)c3)c2F)cc1 [P-317] |
| < 5 | < 5 | COc1ccc(Cc2ccc(F)cc2)cc1-c1cccc([N+](=O)[O-])c1 [P-001, 5-(4-Fluoro-benzyl)-2-methoxy-3′-nitro-biphenyl] |
| < 5 | < 5 | O=[N+]([O-])c1cccc(-c2cc(Cc3ccc(F)cc3)ccc2O)c1 [P-494, 5-(4-Fluoro-benzyl)-3′-nitro-biphenyl-2-ol] |
| 5 to 20 | < 5 | COc1ccc(Cc2ccccc2CO)cc1-c1cccc([N+](=O)[O-])c1 [P-134, [2-(6-Methoxy-3′-nitro-biphenyl-3-ylmethyl)-phenyl]-methanol] |
| < 5 | < 5 | CCOc1ccc(Cc2ccc(NC(N)=O)cc2)c(F)c1-c1cccc(C(C)=O)c1 [P-335, [4-(3′-Acetyl-6-ethoxy-2-fluoro-biphenyl-3-ylmethyl)-phenyl]-urea] |
| < 5 | < 5 | COc1ccc(COc2ccnc(Cl)c2)cc1-c1cccc(Cl)c1 [P-603] |
| < 5 | < 5 | COc1ccc(Cc2ccnn2C)cc1-c1ccc2c(c1)OC(F)(F)O2 [P-115, 5-[3-(2,2-Difluoro-benzo[1,3]dioxol-5-yl)-4-methoxy-benzyl]-1-methyl-1H-pyrazole] |
| < 5 | < 5 | COc1ccc(Cc2ccc(S(N)(=O)=O)cc2)cc1-c1cccc(Cl)c1 [P-266, 4-(3′-Chloro-6-methoxy-biphenyl-3-ylmethyl)-benzenesulfonamide] |
| < 5 | < 5 | COc1ccc(Cc2ccc(C(C)(C)O)nc2)c(F)c1-c1cccc(Cl)c1 [P-587, 2-[5-(3′-Chloro-2-fluoro-6-methoxy-biphenyl-3-ylmethyl)-pyridin-2-yl]-propan-2-ol hydrochloride] |
| < 5 | < 5 | CN(CC(N)=O)c1ccc(Cc2ccc(OC(F)F)c(-c3cccc(Cl)c3)c2)cn1 [P-621, 2-{[5-(3′-Chloro-6-difluoromethoxy-biphenyl-3-ylmethyl)-pyridin-2-yl]-methyl-amino}-acetamide] |
| < 5 | < 5 | NC(=O)Nc1ccc(Cc2ccc(O)c(-c3cccc(Cl)c3)c2F)cc1 [P-468, [4-(3′-Chloro-2-fluoro-6-hydroxy-biphenyl-3-ylmethyl)-phenyl]-urea] |
| < 5 | < 5 | COc1ccc(Cc2ccc(CNC(N)=O)cc2)c(F)c1-c1cccc([N+](=O)[O-])c1 [P-237] |
| < 5 | < 5 | COc1ccc(Cc2ccc(CN3CCNC3=O)nc2)c(F)c1-c1cccc(Cl)c1 [P-374, 1-[5-(3′-Chloro-2-fluoro-6-methoxy-biphenyl-3-ylmethyl)-pyridin-2-ylmethyl]-imidazolidin-2-one] |
| < 5 | < 5 | COc1ccc(Cc2ccc(CNC(N)=O)c(O)c2)c(F)c1-c1cccc(Cl)c1 [P-301] |
| 5 to 20 | < 5 | COc1ccc(Cc2ccc(F)cc2)nc1-c1cccc([N+](=O)[O-])c1 [P-023, 6-(4-fluoro-benzyl)-3-methoxy-2-(3-nitro-phenyl)-pyridine] |
| < 5 | < 5 | COc1ccc(CCn2ccccc2=O)cc1-c1cccc([N+](=O)[O-])c1 [P-244, 1-[2-(6-Methoxy-3′-nitro-biphenyl-3-yl)-ethyl]-1H-pyridin-2-one] |

| IC50 (PDE4B) [µM] | IC50 (PDE4) [µM] | SMILES |
| --- | --- | --- |
| < 5 | < 5 | COc1ccc(Cc2ccc(C#N)c(F)c2)c(F)c1-c1cccc(Cl)c1 [P-274] |
| < 5 | < 5 | NCc1ccc(Cc2ccc(OC(F)F)c(-c3cccc(Cl)c3)c2)cn1 [P-596, C-[5-(3′-Chloro-6-difluoromethoxy-biphenyl-3-ylmethyl)-pyridin-2-yl]-methylamine] |
| 5 to 20 | < 5 | COc1ccc(Cn2cnc(-c3cccnc3)c2)c(F)c1-c1cccc(Cl)c1 [P-479, 3-[1-(3′-Chloro-2-fluoro-6-methoxy-biphenyl-3-ylmethyl)-1H-imidazol-4-yl]-pyridine] |
| 5 to 20 | < 5 | O=c1ccc(Cc2ccc(O)c(-c3cccc([N+](=O)[O-])c3)c2)n[nH]1 [P-488, 6-(6-Hydroxy-3′-nitro-biphenyl-3-ylmethyl)-2H-pyridazin-3-one] |
| 5 to 20 | < 5 | COc1ccc(Cc2ccc(N)c(O)c2)c(F)c1-c1cccc(Cl)c1 [P-256] |
| < 5 | < 5 | CCNC(=O)NCc1ccc(Cc2ccc(OC)c(-c3cccc(Cl)c3)c2)cn1 [P-597, 1-[5-(3′-chloro-6-methoxy-biphenyl-3-ylmethyl)-pyridin-2-ylmethyl]-3-ethyl-urea hydrochloride] |
| 5 to 20 | < 5 | COc1ccc(Cc2ccc(Cl)nc2)c(F)c1-c1cccc(Cl)c1 [P-226] |
| 5 to 20 | < 5 | COc1ccc(Cc2ccc(NS(C)(=O)=O)nc2)c(F)c1-c1cccc(C(C)=O)c1 [P-297] |
| 5 to 20 | 5 to 20 | COc1ccc(CN2CCCC2=O)cc1-c1ccccc1 [P-162, 1-(6-Methoxy-biphenyl-3-ylmethyl)-pyrrolidin-2-one] |
| 5 to 20 | < 5 | COc1ccc(Cc2ccc(NC(=O)CCN3CCCCC3)cc2)cc1-c1cccc([N+](=O)[O-])c1 [P-146] |
| < 5 | < 5 | NC(=O)Nc1ccc(Cc2ccc(O)c(-c3cccc(Cl)c3)c2)cc1 [P-421, [4-(3′-Chloro-6-hydroxy-biphenyl-3-ylmethyl)-phenyl]-urea] |
| 21 to 40 | 5 to 20 | COc1ccc(Cc2ccc[nH]c2=O)c(O)c1-c1cccc(N)c1 [P-185] |
| 5 to 20 |  | COc1ccc(CO)c(O)c1-c1cccc([N+](=O)[O-])c1 [Cmpd P-149] |
| 5 to 20 |  | CNC(=O)Cc1ccc(OC)c(-c2cccc([N+](=O)[O-])c2)c1 [Cmpd P-027] |
| < 5 |  | COc1ccc(Cc2ccncc2)nc1-c1cccc([N+](=O)[O-])c1 [P-019, 3-methoxy-2-(3-nitro-phenyl)-6-pyridin-4-ylmethyl-pyridine] |
| 21 to 40 |  | COc1ccc(Cc2cc(N)cc(O)c2)c(F)c1-c1cccc(Cl)c1 [P-324, 3-Amino-5-(3′-chloro-2-fluoro-6-methoxy-biphenyl-3-ylmethyl)-phenol] |
| 21 to 40 |  | COc1ccc(CN2C[C@@H](OC(N)=O)CC2=O)cc1-c1cccc([N+](=O)[O-])c1 [P-253, Carbamic acid (S)-1-(6-methoxy-3′-nitro-biphenyl-3-ylmethyl)-5-oxo-pyrrolidin-3-yl ester] |
| 21 to 40 |  | COc1ccc(CN2CCCC2=O)nc1-c1cccc([N+](=O)[O-])c1 [P-031, 1-[5-methoxy-6-(3-nitro-phenyl)-pyridin-2-ylmethyl]-pyrrolidin-2-one] |
